Laboratory results taken from the NIST ThermoML archive (doi:10.1016/j.fluid.2010.06.017).
Numbers after ± are expanded uncertainties.

Assay: wn = mass fraction of the nth substance listed
Settings: 373.15 K; 34470 kPa; Liquid; Vibrating tube method; w1 = 0.4623

mass density: 1399 ± 17 kg/m3
Compound: FC(F)(F)C1(F)C(F)(F)C(F)(F)C(F)(F)C(F)(C(F)(F)F)C1(F)F (stereo unspecified) + C
